The record followed here is ChEMBL document CHEMBL1127288, “Derivatives of D-penicillamine as potential antiarthritic agents” (1994).

Holding throughout (assay type): functional
The subject of test [1] is Rattus norvegicus. As to the kind of experiment: Cartilage space narrowing was measured radiographically after 42 days initial immunization with type II collagen in rats at a dose of 200 mg/kg.
Test [2] concerns Rattus norvegicus. As to the kind of experiment: Erosions of tarsal bones measured radiographically after 42 days initial immunization with type II collagen in rats at a dose of 200 mg/kg.
In test [3] the test system is Rattus norvegicus. As to the kind of experiment: Paw diameter measured with a micrometer caliper after 42 days initial immunization with type II collagen in rats at a dose of 200 mg/kg.

In turn, `C[C@]12C=CC(=O)C=C1CCC1[C@@H]2[C@@H](O)C[C@@]2(C)[C@H]1CC[C@]2(O)C(=O)CO` (single isomer, unassigned) [PREDNISOLONE] gave a Cartilage space in the test with Rattus norvegicus [1] of 3.27. The same compound had an Erosions in the test with Rattus norvegicus [2] of 3.5. The compound further gave a Mean paw diameter in the test on Rattus norvegicus [3] of 7.92 mm.

`CC(C)(S)[C@@H](N)C(=O)O` [PENICILLAMINE] registered a Cartilage space in the test on Rattus norvegicus [1] of 2.72. The Erosions in the test on Rattus norvegicus [2] is 2.83. Further, the Mean paw diameter in the test on Rattus norvegicus [3] stood at 8.89 mm.

`COc1ccc2c(c1)c(CC(=O)O)c(C)n2C(=O)c1ccc(Cl)cc1` [INDOMETHACIN]: the Cartilage space with Rattus norvegicus [1] is recorded as 2.94. Besides, the Erosions in the test on Rattus norvegicus [2] worked out at 2.94. The same compound gave a Mean paw diameter in the test with Rattus norvegicus [3] of 8 mm.

Consider `CCCCC1C(=O)N(c2ccccc2)N(c2ccccc2)C1=O` [PHENYLBUTAZONE], for which, in the test with Rattus norvegicus [1], the Cartilage space turned out to be 2.86. The compound also yielded an Erosions in the test with Rattus norvegicus [2] of 3.33. The Mean paw diameter in the test on Rattus norvegicus [3] is 8.42 mm.
